Laboratory results taken from patent US20220117993A1, “Compounds Useful in HIV Therapy” (GlaxoSmithKline Intellectual Property (No. 2) Limited, priority 2018, published 2022).

Experiments:
[1] = system: PSV with methionine 184 to valine (M184V) substitution in the reverse transcriptase gene; experiment: microbe, parasite or virus in culture; format: cell-based, HIV; conditions: Human immunodeficiency virus 1, 72 h, read-out: M184V IC50
[2] = system: wild-type NL4-3 replication defective pseudovirus (PSV); experiment: microbe, parasite or virus in culture; format: cell-based; conditions: NL43, 72 h, U373 cells expressing human CD4 and CXCR4 or CCR5, luciferase signal after 3 days, mean IC50, read-out: WT IC50

SMILES	IC50 [1] [nM]	IC50 [2] [nM]
C#C[C@]1(CO)O[C@@H](n2cnc3c(N)nc(F)nc32)C[C@@H]1OC(C)=O [Example 1, (2R,3S,5R)-5-(6-amino-2-fluoro-9H-purin-9-yl)-2-ethynyl-2-(hydroxymethyl)tetrahydrofuran-3-yl acetate]	538	106
C#C[C@]1(CO)O[C@@H](n2cnc3c(N)nc(F)nc32)C[C@@H]1OC(=O)C(C)(C)CCC [Example 18, (2R,3S,5R)-5-(6-amino-2-fluoro-9H-purin-9-yl)-2-ethynyl-2-(hydroxymethyl)tetrahydrofuran-3-yl 2,2-dimethylpentanoate]	168	46.4
C#C[C@]1(CO)O[C@@H](n2cnc3c(NC(=O)CCCCCCCCC)nc(F)nc32)C[C@@H]1OC(=O)CCCCCCCCC [Example 27, (2R,3S,5R)-5-(6-decanamido-2-fluoro-9H-purin-9-yl)-2-ethynyl-2-(hydroxymethyl)tetrahydrofuran-3-yl decanoate]	28.6	6.8
C#C[C@]1(CO)O[C@@H](n2cnc3c(N)nc(F)nc32)C[C@@H]1OC(=O)[C@H]1CC[C@H](C(C)(C)C)CC1 [Example 22, (2R,3S,5R)-5-(6-amino-2-fluoro-9H-purin-9-yl)-2-ethynyl-2-(hydroxymethyl)tetrahydrofuran-3-yl (1r,4S)-4-(tert-butyl)cyclohexane-1-carboxylate]	9.3	2.6
C#C[C@]1(CO)O[C@@H](n2cnc3c(N)nc(F)nc32)C[C@@H]1OC(=O)C(C)CCCCC (stereo partly drawn) [Example 11, (2R,3S,5R)-5-(6-amino-2-fluoro-9H-purin-9-yl)-2-ethynyl-2-(hydroxymethyl)tetrahydrofuran-3-yl 2-methylheptanoate]	17	2.9
C#C[C@]1(CO)O[C@@H](n2cnc3c(N)nc(F)nc32)C[C@@H]1OC(=O)CCCCCCC/C=C\C/C=C\C/C=C\CC [Example 7, (9Z,12Z,15Z)-(2R,3S,5R)-5-(6-amino-2-fluoro-9H-purin-9-yl)-2-ethynyl-2-(hydroxymethyl)tetrahydrofuran-3-yl octadeca-9,12,15-trienoate]	36.4	7.1
C#C[C@]1(CO)O[C@@H](n2cnc3c(N)nc(F)nc32)C[C@@H]1OC(=O)CCCCCCCCCCCCCCCCCCC [Example 6, (2R,3S,5R)-5-(6-amino-2-fluoro-9H-purin-9-yl)-2-ethynyl-2-(hydroxymethyl)tetrahydrofuran-3-yl icosanoate]	3280	635
C#C[C@]1(CO)O[C@@H](n2cnc3c(N)nc(F)nc32)C[C@@H]1OC(=O)C(CCCC)CCCCCC (stereo partly drawn) [Example 17, (2R,3S,5R)-5-(6-amino-2-fluoro-9H-purin-9-yl)-2-ethynyl-2-(hydroxymethyl)tetrahydrofuran-3-yl 2-butyloctanoate]	598	145
C#C[C@]1(CO)O[C@@H](n2cnc3c(N)nc(F)nc32)C[C@@H]1OC(=O)C(CCC)CCC [Example 5, (2R,3S,5R)-5-(6-amino-2-fluoro-9H-purin-9-yl)-2-ethynyl-2-(hydroxymethyl)tetrahydrofuran-3-yl 2-propylpentanoate]	168	35.5
C#C[C@]1(CO)O[C@@H](n2cnc3c(N)nc(F)nc32)C[C@@H]1OC(=O)C1CCCCC1 [Example 16, (2R,3S,5R)-5-(6-amino-2-fluoro-9H-purin-9-yl)-2-ethynyl-2-(hydroxymethyl)tetrahydrofuran-3-yl cyclohexanecarboxylate]	19	3.9
C#C[C@]1(CO)O[C@@H](n2cnc3c(NC(=O)CCCCCC)nc(F)nc32)C[C@@H]1OC(=O)CCCCCC [Example 25, (2R,3S,5R)-2-ethynyl-5-(2-fluoro-6-heptanamido-9H-purin-9-yl)-2-(hydroxymethyl)tetrahydrofuran-3-yl heptanoate]	43.9	9.4
C#C[C@]1(CO)O[C@@H](n2cnc3c(N)nc(F)nc32)C[C@@H]1OC(=O)Cc1ccccc1 [Example 10, (2R,3S,5R)-5-(6-amino-2-fluoro-9H-purin-9-yl)-2-ethynyl-2-(hydroxymethyl)tetrahydrofuran-3-yl 2-phenylacetate]	26.2	7.2
C#C[C@]1(CO)O[C@@H](n2cnc3c(N)nc(F)nc32)C[C@@H]1OC(=O)[C@H]1CC[C@H](CCCCC)CC1 [Example 12, (2R,3S,5R)-5-(6-amino-2-fluoro-9H-purin-9-yl)-2-ethynyl-2-(hydroxymethyl)tetrahydrofuran-3-yl (1s,4S)-4-pentylcyclohexane-1-carboxylate]	10.7	1.8
C#C[C@]1(CO)O[C@@H](n2cnc3c(N)nc(F)nc32)C[C@@H]1OC(=O)CCCCCC [Example 4, (2R,3S,5R)-5-(6-amino-2-fluoro-9H-purin-9-yl)-2-ethynyl-2-(hydroxymethyl)tetrahydrofuran-3-yl heptanoate]	24	4.1
C#C[C@]1(CO)O[C@@H](n2cnc3c(N)nc(F)nc32)C[C@@H]1OC(=O)c1ccccc1 [Example 19, (2R,3S,5R)-5-(6-amino-2-fluoro-9H-purin-9-yl)-2-ethynyl-2-(hydroxymethyl)tetrahydrofuran-3-yl benzoate]	197	40.8
C#C[C@]1(COC(=O)OCC)O[C@@H](n2cnc3c(N)nc(F)nc32)C[C@@H]1OC(=O)CCCCCCCCC [Example 9, (2R,3S,5R)-5-(6-amino-2-fluoro-9H-purin-9-yl)-2-(((ethoxycarbonyl)oxy)methyl)-2-ethynyltetrahydrofuran-3-yl decanoate]	53	11.4
C#C[C@]1(CO)O[C@@H](n2cnc3c(NC(=O)CCCCCCCCCCCCC)nc(F)nc32)C[C@@H]1OC(=O)CC(C)(C)c1c(C)cc(C)cc1OC(C)=O [Example 28, (2R,3S,5R)-2-ethynyl-5-(2-fluoro-6-tetradecanamido-9H-purin-9-yl)-2-(hydroxymethyl)tetrahydrofuran-3-yl 3-(2-acetoxy-4,6-dimethylphenyl)-3-methylbutanoate]	153	41.5
C#C[C@]1(CO)O[C@@H](n2cnc3c(NC(=O)CCC)nc(F)nc32)C[C@@H]1OC(=O)CCC [Example 26, (2R,3S,5R)-5-(6-butyramido-2-fluoro-9H-purin-9-yl)-2-ethynyl-2-(hydroxymethyl)tetrahydrofuran-3-yl butyrate]	465	102
C#C[C@]1(COC(=O)OCC)O[C@@H](n2cnc3c(N)nc(F)nc32)C[C@@H]1OC(=O)CCCCCCCCCCCCCCCCC [Example 24, (2R,3S,5R)-5-(6-amino-2-fluoro-9H-purin-9-yl)-2-(((ethoxycarbonyl)oxy)methyl)-2-ethynyltetrahydrofuran-3-yl stearate]	2120	1270
C#C[C@]1(CO)O[C@@H](n2cnc3c(N)nc(F)nc32)C[C@@H]1OC(=O)CCCCCCCCCCCCC [Example 2, (2R,3S,5R)-5-(6-amino-2-fluoro-9H-purin-9-yl)-2-ethynyl-2-(hydroxymethyl)tetrahydrofuran-3-yl tetradecanoate]	7.8	1.5
C#C[C@]1(CO)O[C@@H](n2cnc3c(NC(=O)OCC)nc(F)nc32)C[C@@H]1OC(=O)CCCCCCCCC [Example 8, (2R,3S,5R)-5-(6-((ethoxycarbonyl)amino)-2-fluoro-9H-purin-9-yl)-2-ethynyl-2-(hydroxymethyl)tetrahydrofuran-3-yl decanoate]	460	165
